Laboratory results: patent US20100216779A1 (GLAXOSMITHKLINE LLC, priority 2007, published 2010)

Tested on: LISN cell (mouse 3T3 fibroblasts transduced with human IGF-1R) tumors
Experiment: In vivo efficacy, mice bearing LISN cell tumors
Conditions: LISN
Procedure: E. In Vivo Efficacy—Mouse Models
The efficacy of the compounds of Examples 57 and 58 were assessed together in an in vivo efficacy experiment performed on mice bearing LISN cell (mouse 3T3 fibroblasts transduced with human IGF-1R) tumors. Fifty six female nude mice bearing subcutaneous LISN cell tumors were measured for tumor size and body weight and block randomized into seven groups of eight mice with an equal average tumor volume of approximately 200 mm3. Mice were dosed with either vehicle (20% SBE pH3.5), Example 57 or Example 58. The dosing schedules for each compound were based on previous experiments with the compounds and doses chosen to give the highest tumor growth inhibition and a dose response. Example 58 was dosed at 30, 100 and 300 mg/kg QD for 21 days while Example 57 was dosed at 30 mg/kg QD for 21 days, 15 mg/kg BID for 21 days and 30 mg/kg QDx3 days/week for 3 weeks.
The tumors on mice being treated with vehicle grew with the expected exponential growth throughout the 21 day study. […] The lower dose of 30 mg/kg of Example 58 achieved 28% tumor growth inhibition.
The efficacy of the compounds of Examples 237 and 219 were assessed together in an in vivo efficacy experiment performed on mice bearing LISN cell (mouse 3T3 fibroblasts transduced with human IGF-1R) tumors. Sixty four female nude mice bearing subcutaneous LISN cell tumors were measured for tumor size and body weight and block randomized into eight groups of eight mice with an equal average tumor volume of approximately 362 mm^3. Mice were dosed with either vehicle (20% SBE pH3.5), Example 237 or Example 219. The dosing schedules for each compound were based on previous experiments with the compounds and doses chosen to give the highest tumor growth inhibition and a dose response. Example 237 was administered at 30 and 60 mg/kg QD for 21 days and 30 mg/kg BID for 21 days while Example 219 was administered at 50 and 100 mg/kg QD for 21 days, 25 and 50 mg/kg BID for 21 days.
The tumors on mice being treated with vehicle grew with the expected exponential growth throughout the 21 day study. […] The lower dose of 30 mg/kg QD of Example 237 achieved 15% tumor growth inhibition at day 21 (note: 2 animals were euthanized prior to the last measurement). […] This recovered to 3% by the end of dosing and fully recovered after dosing was concluded. […] This recovered fully within 4 days after the completion of dosing.

In the case of `COc1cc(N2CCC(N3CCN(CCF)CC3)CC2)ccc1Nc1nccc(-c2c(-c3cccc(C(=O)Nc4c(F)cccc4F)c3)nc3ccccn23)n1` [Example 57, N-(2,6-difluorophenyl)-3-[3-(2-{[4-{4-[4-(2-fluoroethyl)-1-piperazinyl]-1-piperidinyl}-2-(methyloxy)phenyl]amino}-4-pyrimidinyl)imidazo[1,2-a]pyridin-2-yl]benzamide], the tumor growth inhibition (15 mg/kg BID for 21 days) is reported as 50%, the body weight loss (30 mg/kg QD and 15 mg/kg BID treated groups) is reported as “no body weight loss” and the tumor growth inhibition (30 mg/kg QD for 21 days) is reported as 34%. The tumor growth inhibition (30 mg/kg QDx3 days/week for 3 weeks) was 69% and the body weight loss (30 mg/kg QDx3 days/week for 3 weeks, over the three consecutive days of dosing, recovered in between doses) was “significant body weight loss”.
